Experiments:
[1] = system: SNL-induced mechanical hyperalgesia; assay: SNL-induced mechanical hyperalgesia model (paw pressure test); type: in vivo, rat; conditions: rats, dosed orally at 100 mg/kg, vehicle 0.5% methyl cellulose, one hour before testing
Experimental: In the Chung model, the spinal nerve ligation (SNL) model of neuropathic pain is used to produce mechanical hyperalgesia, thermal hyperalgesia, and tactile allodynia in rats. Surgery is performed under isoflurane/O2 inhalation anesthesia. Following induction of anesthesia a 3 cm incision is made and the left paraspinal muscles are separated from the spinous process at the L4-S2 levels. The L6 transverse process is carefully removed with a pair of small rongeurs to identify visually the L4-L6 spinal nerves. The left L5 (or L5 and L6) spinal nerve(s) is (are) isolated and tightly ligated with silk thread. […] The animals can also be assessed for response to noxious thermal stimuli or for tactile allodynia, as described below. […] Sensitivity to noxious mechanical stimuli was measured in animals using the paw pressure test to assess mechanical hyperalgesia. In rats, hind paw withdrawal thresholds (“PWT”), measured in grams, in response to a noxious mechanical stimulus were determined using an analgesymeter (Model 7200, commercially available from Ugo Basile of Italy), as described in Stein (Biochemistry & Behavior 31: 451-455 (1988)). […] PWT was determined once for each rat at each time point. PWT can be measured only in the injured paw, or in both the injured and non-injured paw. […]

[2] = target: human Nav1.7 (Homo sapiens (Human), UniProt Q15858); assay: FLIPR sodium dye assay (CoroNa Green) with KCl and test article pre-incubation; type: cell-based; conditions: read-out: Nav1.7 Activity FLIPR assay IC50
Sequence of human Nav1.7 (Q15858 other isoform, or with tags, fused parts or gaps): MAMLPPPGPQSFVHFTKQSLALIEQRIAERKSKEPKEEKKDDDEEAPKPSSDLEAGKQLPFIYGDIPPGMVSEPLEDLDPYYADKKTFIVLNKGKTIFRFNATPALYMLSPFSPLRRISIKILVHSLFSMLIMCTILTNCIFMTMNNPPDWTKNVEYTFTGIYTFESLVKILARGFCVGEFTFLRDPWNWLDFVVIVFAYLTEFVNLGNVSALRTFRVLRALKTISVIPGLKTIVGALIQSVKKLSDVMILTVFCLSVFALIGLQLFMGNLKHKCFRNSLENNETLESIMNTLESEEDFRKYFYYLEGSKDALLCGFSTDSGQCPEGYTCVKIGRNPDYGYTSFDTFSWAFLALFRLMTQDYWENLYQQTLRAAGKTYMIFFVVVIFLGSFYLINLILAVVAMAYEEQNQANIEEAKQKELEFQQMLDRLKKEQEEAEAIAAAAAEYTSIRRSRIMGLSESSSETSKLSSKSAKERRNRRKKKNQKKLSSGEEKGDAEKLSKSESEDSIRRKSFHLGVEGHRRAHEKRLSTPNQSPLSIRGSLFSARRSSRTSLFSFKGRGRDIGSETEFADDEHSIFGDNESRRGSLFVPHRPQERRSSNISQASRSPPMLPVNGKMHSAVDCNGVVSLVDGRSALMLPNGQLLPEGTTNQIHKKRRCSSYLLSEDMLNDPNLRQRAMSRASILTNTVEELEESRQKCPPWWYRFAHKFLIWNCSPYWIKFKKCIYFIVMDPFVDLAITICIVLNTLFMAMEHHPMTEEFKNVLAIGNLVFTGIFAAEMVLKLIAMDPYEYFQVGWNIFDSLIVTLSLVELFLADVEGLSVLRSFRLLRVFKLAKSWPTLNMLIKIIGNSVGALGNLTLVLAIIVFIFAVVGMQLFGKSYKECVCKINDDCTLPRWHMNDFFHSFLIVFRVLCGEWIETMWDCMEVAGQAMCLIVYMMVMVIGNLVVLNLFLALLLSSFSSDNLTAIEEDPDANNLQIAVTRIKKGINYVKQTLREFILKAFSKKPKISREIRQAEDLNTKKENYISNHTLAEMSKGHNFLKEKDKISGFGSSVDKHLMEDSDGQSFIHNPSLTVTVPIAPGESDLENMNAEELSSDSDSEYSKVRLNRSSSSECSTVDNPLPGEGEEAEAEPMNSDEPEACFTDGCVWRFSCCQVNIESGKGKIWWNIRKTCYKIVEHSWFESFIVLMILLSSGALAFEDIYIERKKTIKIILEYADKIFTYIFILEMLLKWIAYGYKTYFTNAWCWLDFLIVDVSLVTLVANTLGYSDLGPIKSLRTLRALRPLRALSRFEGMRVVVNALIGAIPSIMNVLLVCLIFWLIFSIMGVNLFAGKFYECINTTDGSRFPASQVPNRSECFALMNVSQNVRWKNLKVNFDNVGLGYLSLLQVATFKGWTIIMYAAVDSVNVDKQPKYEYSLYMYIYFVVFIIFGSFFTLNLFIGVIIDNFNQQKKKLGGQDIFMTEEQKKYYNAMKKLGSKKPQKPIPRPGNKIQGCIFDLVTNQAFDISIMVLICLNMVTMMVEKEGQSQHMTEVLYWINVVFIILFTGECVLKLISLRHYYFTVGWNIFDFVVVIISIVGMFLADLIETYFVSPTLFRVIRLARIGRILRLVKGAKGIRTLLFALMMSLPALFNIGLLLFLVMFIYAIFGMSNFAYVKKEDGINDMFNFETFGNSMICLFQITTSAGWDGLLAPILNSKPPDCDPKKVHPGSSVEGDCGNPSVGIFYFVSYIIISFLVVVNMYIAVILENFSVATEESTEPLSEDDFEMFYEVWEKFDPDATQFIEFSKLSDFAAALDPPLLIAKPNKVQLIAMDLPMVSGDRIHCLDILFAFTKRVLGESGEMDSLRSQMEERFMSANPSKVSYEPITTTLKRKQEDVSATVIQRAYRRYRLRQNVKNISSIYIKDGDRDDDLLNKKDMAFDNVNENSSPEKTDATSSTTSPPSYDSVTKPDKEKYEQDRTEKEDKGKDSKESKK

[3] = target: hNav1.7 (Homo sapiens (Human), UniProt Q15858); assay: Electrophysiology (EP) whole-cell patch clamp assay; type: cell-based; conditions: hNav1.7 HEK-293
Sequence of hNav1.7 (Q15858 other isoform, or with tags, fused parts or gaps): as above
Experimental: The hNav1.7 expressing HEK-293 cells were plated on 35 mm culture dishes pre-coated with poly-D-lysine in standard DMEM culture media (Mediatech, Inc., Herndon, Va.) and incubated in a 5% CO2 incubator at 37° C. Cultured cells were used approximately 12-48 h after plating.
On the day of experimentation, the 35 mm dish was placed on the stage of an inverted microscope equipped with a perfusion system that continuously perfuses the culture dish with fresh recording media. A gravity driven superfusion system was used to apply test solutions directly to the cell under evaluation. This system consists of an array of glass pipette glass connected to a motorized horizontal translator. The outlet of the shooter was positioned approximately 100 μm from the cell of interest.
Gigaseals were formed and the whole-cell configuration was established in voltage clamp mode, and membrane currents generated by hNav1.7 were recorded in gap-free mode. […] Signals were sampled at 50 kHz and low pass filtered at 3 kHz.
To determine a membrane potential at which the majority of channels are in the resting state, a standard steady-state inactivation (SSIN) protocol was run using 100 ms prepulses×10 mV depolarizing steps. The holding potential for testing resting block (Vh1) was 20 mV more hyperpolarized than the first potential where inactivation is observed with the inactivation protocol.
From this holding potential a standard I-V protocol was run to determine the potential at which the maximal current (Imax) was elicited. This potential was the test potential (Vt).
The fractional response was calculated as follows: FR=I(after drug)/I(control),
where I is the peak current amplitude and was used for estimating resting block dissociation constant, Kr: Kr=[drug]*{FR/(1−FR)},
To assess the block of inactivated channels the holding potential was depolarized such that 20-50% of the current amplitude was reduced when pulsed to the same Vt as above. The magnitude of this depolarization depends upon the initial current amplitude and the rate of current loss due to slow inactivation. This was the second holding potential (Vh2). The current reduction was recorded to determine the fraction of available channels at this potential (h). h=I@Vh2/Imax.
At this membrane voltage a proportion of channels are in the inactivated state, and thus inhibition by a blocker includes interaction with both resting and inactivated channels.
To determine the potency of the test compound on inactivated channels, a series of currents were elicited by 10 ms voltage steps from Vh2 to Vt every 10-15 seconds. After establishing a stable baseline, the low concentration of the compound was applied. Multiple cumulative concentrations may have to be applied to identify a concentration that will block between 40-60% of the current. Washout was attempted to re-establish baseline. Fractional responses were measured with respect to a projected baseline to determine Kapp. Kapp=[drug]*{FR/(1−FR)},
This Kapp value, along with the calculated Kr and h values, were used to calculate the affinity of the compound for the inactivated channels (Ki) using the following equation: Ki=(1−h)/((1/Kapp)−(h/Kr)).
Vehicle solution used to establish base line was also contacting 0.3% DMSO.
Data was analyzed off-line using Clampfit software (pClamp, v. 8; Axon Instruments) and graphed using GraphPad Prizm (v. 4.0 or higher) software.

Row | Compound | SNL-induced mechanical hyperalgesia (paw withdrawal threshold) [1] | IC50 [2] | Ki ([3]; affinity for inactivated channels, read-out: Nav1.7 Activity EP assay Ki) | Kd ([3]; resting block dissociation constant, read-out: Nav1.7 Activity EP assay Kr)
1 | C[C@H](Nc1cc(C(N)=O)nc(-c2ccc(Oc3ccc(OC(F)(F)F)cc3)cc2)n1)C(N)=O [Cpd No. 84, (S)-6-((1-amino-1-oxopropan-2-yl)amino)-2-(4-(4-(trifluoromethoxy)phenoxy)phenyl)pyrimidine-4-carboxamide] | reduced SNL-induced mechanical hyperalgesia |  |  | 
2 | NC(=O)c1cc(N[C@H]2CCNC2=O)nc(-c2ccc(Oc3ccc(C(F)(F)F)cn3)cc2)n1 [compound 99, (S)-6-((2-oxopyrrolidin-3-yl)amino)-2-(4-((5-(trifluoromethyl)pyridin-2-yl)oxy)phenyl)pyrimidine-4-carboxamide] | reduced SNL-induced mechanical hyperalgesia | 570 nM | 83 nM | 4650 nM

— patent US9163008B2, “Pyrimidines as sodium channel blockers” (Purdue Pharma, L.P., priority 2011, dated 2015)
